Patent publication US20240336655A1, “AMPHIPHILIC PEPTIDES FOR NUCLEIC ACID AND PROTEIN DELIVERY” (AJK BIOPHARMACEUTICAL, LLC, priority 2021, published 2024)
Peptide text beside a SMILES is read from it.

Assays:
siRNA = experiment: Serum stability / protection of siRNA against enzymatic degradation in fetal bovine serum; assay type: in vitro ADME; conditions: 24 hours of exposure to serum, N/P ratio of 40, compared to siRNA exposed to saline
Text: Serum Stability. In order to determine the capability of the complexes to protect the siRNA against enzymatic degradation, Inventors exposed different study groups to a diluted fetal bovine serum (FBS) solution, with “naked” siRNA as a positive control, and siRNA exposed to saline as a negative control according to the previously reported procedure (Mozaffari S, Bousoik E, Amirrad F, Lamboy R, Coyle M, Hall R, Alasmari A, Mahdipoor P, Parang K, Montazeri Aliabadi H. Amphiphilic Peptides for Efficient siRNA Delivery. Polymers (Basel). 2019; 11(4) doi: 10.3390/polym11040703. PubMed PMID: 30999603; PMCID: PMC6523661).
(§1) The binding affinity for [CR4W4C] […] The toxicity of the peptides was evaluated in triple-negative breast cancer (TNBC) cells MDA-MB-231 (as a model cancer cell line) with peptide alone and siRNA complexes, and CCK assay to quantify cell viability after 48 hours.
Protection of siRNA against Enzymatic Degradation. […] After the incubation, complexes were dissociated using a 2:3 mixture of heparin (5% solution in normal saline) and EDTA (0.5 mM), and the samples were analyzed using a 1% agarose gel (with 1 μg/mL ethidium bromide) at 70 V for 20 minutes. UV illumination (Gel-Doc system, Bio-Rad; Hercules, CA) was used to visualize the gel, and the intensity of the bands (representing remaining intact siRNA) was quantified by Image J software (FIG. 8).

MDA-MB-231 cells = experiment: Cytotoxicity of peptides and peptide/siRNA complexes in MDA-MB-231 cells (MTT / CCK); assay type: cell-based, human; conditions: as compared to commercial agent lipofectamine
Protocol: as §1
The human breast cancer cell line MDA-MB-231 was purchased from American Type Culture Collection (ATCC; Manassas, VA). MDA-MB-231 was cultured in the DMEM medium. The media was supplemented with 10% (v/v) fetal bovine serum, 100 U/mL penicillin, and 100 μg/ml streptomycin. Cells were maintained in the normal condition of 37° C. and 5% CO2 under a humidified atmosphere and were sub-cultured when 80-100% confluent.
Toxicity of the Peptide/siRNA Complexes: The effect of peptides on the viability of human cell lines was evaluated by exposing the MDA-MB-231 cell lines (FIGS. 9-12) to different concentrations of peptide solution and exposing the cells to peptide/siRNA complexes prepared with different peptides at a various peptide:siRNA ratios according to the previously reported procedure by us (Mozaffari S, Bousoik E, Amirrad F, Lamboy R, Coyle M, Hall R, Alasmari A, Mahdipoor P, Parang K, Montazeri Aliabadi H. Amphiphilic Peptides for Efficient siRNA Delivery. Polymers (Basel). 2019; 11(4). doi: 10.3390/polym11040703. PubMed PMID: 30999603; PMCID: PMC6523661). […]

SMILES | protection of siRNA in the presence of serum (siRNA) | toxicity (MDA-MB-231 cells)
N=C(N)NCCC[C@@H]1NC(=O)[C@H](CCCNC(=N)N)NC(=O)[C@H](CCCNC(=N)N)NC(=O)[C@H](CCCNC(=N)N)NC(=O)[C@H](CCCNC(=N)N)NC(=O)[C@@H](NC(=O)[C@H](Cc2c[nH]c3ccccc23)NC(=O)[C@H](Cc2c[nH]c3ccccc23)NC(=O)[C@H](Cc2c[nH]c3ccccc23)NC(=O)[C@@H](N)Cc2c[nH]c3ccccc23)CSSC[C@@H](C(=O)N[C@@H](Cc2c[nH]c3ccccc23)C(=O)N[C@@H](Cc2c[nH]c3ccccc23)C(=O)N[C@@H](Cc2c[nH]c3ccccc23)C(=O)N[C@@H](Cc2c[nH]c3ccccc23)C(=O)O)NC1=O [W4[CR5C]W4] (HELM PEPTIDE1{W.W.W.W.C.R.R.R.R.R.C.W.W.W.W}$PEPTIDE1,PEPTIDE1,5:R3-11:R3$$$V2.0; N-terminus and C-terminus assumed) | protect siRNA completely | without toxicity
N=C(N)NCCC[C@@H]1NC(=O)[C@H](CCCNC(=N)N)NC(=O)[C@H](CCCNC(=N)N)NC(=O)[C@H](CCCNC(=N)N)NC(=O)[C@@H](N)CSSC[C@@H](C(=O)O)NC(=O)[C@H](Cc2c[nH]c3ccccc23)NC(=O)[C@H](Cc2c[nH]c3ccccc23)NC(=O)[C@H](Cc2c[nH]c3ccccc23)NC(=O)[C@H](Cc2c[nH]c3ccccc23)NC1=O [[CR4W4C]] (HELM PEPTIDE1{C.R.R.R.R.W.W.W.W.C}$PEPTIDE1,PEPTIDE1,1:R3-10:R3$$$V2.0; N-terminus and C-terminus assumed) | protect siRNA completely | without toxicity
